Source: patent US10800791B2, “Triazole ACC inhibitors and uses thereof” (Gilead Apollo, LLC, priority 2015, dated 2020)
≈ marks a conversion by molar mass, not a printed value. Where two headings read alike, the source gives them in different places.

Tests used:
[1] = system: Phytophthora capsici (Pc); experiment: Growth inhibition assay of fungal pathogens, Pc; assay type: cell-based; details: 48 h
How it was run: (§1)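 Pathogen growth in 17% V8 broth is measured by OD600 at 24 and 48 hours, after blank subtraction, in the presence of compound at 50, 10 and 2 ppm or 2, 0.4 and 0.08 ppm. Inhibition in percent comes from 48-hour readings against the DMSO control.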

Diplodia maydis (Dm) = experiment: Growth inhibition assay of fungal pathogens, Dm; assay type: cell-based; details: Stenocarpella maydis, 48 h
How it was run: as §1

Rhizoctonia solani (Rs) = experiment: Growth inhibition assay of fungal pathogens, Rs; assay type: cell-based; details: 48 h
human (hACC2) = human (hACC2) (Homo sapiens, UniProt O00763); experiment: In vitro ACC inhibition assay (ADP-Glo), hACC2; assay type: biochemical; details: 5 nM ACC2, 20 μM ATP, 20 μM acetyl-CoA
human (hACC2), sequence (O00763 whole entry): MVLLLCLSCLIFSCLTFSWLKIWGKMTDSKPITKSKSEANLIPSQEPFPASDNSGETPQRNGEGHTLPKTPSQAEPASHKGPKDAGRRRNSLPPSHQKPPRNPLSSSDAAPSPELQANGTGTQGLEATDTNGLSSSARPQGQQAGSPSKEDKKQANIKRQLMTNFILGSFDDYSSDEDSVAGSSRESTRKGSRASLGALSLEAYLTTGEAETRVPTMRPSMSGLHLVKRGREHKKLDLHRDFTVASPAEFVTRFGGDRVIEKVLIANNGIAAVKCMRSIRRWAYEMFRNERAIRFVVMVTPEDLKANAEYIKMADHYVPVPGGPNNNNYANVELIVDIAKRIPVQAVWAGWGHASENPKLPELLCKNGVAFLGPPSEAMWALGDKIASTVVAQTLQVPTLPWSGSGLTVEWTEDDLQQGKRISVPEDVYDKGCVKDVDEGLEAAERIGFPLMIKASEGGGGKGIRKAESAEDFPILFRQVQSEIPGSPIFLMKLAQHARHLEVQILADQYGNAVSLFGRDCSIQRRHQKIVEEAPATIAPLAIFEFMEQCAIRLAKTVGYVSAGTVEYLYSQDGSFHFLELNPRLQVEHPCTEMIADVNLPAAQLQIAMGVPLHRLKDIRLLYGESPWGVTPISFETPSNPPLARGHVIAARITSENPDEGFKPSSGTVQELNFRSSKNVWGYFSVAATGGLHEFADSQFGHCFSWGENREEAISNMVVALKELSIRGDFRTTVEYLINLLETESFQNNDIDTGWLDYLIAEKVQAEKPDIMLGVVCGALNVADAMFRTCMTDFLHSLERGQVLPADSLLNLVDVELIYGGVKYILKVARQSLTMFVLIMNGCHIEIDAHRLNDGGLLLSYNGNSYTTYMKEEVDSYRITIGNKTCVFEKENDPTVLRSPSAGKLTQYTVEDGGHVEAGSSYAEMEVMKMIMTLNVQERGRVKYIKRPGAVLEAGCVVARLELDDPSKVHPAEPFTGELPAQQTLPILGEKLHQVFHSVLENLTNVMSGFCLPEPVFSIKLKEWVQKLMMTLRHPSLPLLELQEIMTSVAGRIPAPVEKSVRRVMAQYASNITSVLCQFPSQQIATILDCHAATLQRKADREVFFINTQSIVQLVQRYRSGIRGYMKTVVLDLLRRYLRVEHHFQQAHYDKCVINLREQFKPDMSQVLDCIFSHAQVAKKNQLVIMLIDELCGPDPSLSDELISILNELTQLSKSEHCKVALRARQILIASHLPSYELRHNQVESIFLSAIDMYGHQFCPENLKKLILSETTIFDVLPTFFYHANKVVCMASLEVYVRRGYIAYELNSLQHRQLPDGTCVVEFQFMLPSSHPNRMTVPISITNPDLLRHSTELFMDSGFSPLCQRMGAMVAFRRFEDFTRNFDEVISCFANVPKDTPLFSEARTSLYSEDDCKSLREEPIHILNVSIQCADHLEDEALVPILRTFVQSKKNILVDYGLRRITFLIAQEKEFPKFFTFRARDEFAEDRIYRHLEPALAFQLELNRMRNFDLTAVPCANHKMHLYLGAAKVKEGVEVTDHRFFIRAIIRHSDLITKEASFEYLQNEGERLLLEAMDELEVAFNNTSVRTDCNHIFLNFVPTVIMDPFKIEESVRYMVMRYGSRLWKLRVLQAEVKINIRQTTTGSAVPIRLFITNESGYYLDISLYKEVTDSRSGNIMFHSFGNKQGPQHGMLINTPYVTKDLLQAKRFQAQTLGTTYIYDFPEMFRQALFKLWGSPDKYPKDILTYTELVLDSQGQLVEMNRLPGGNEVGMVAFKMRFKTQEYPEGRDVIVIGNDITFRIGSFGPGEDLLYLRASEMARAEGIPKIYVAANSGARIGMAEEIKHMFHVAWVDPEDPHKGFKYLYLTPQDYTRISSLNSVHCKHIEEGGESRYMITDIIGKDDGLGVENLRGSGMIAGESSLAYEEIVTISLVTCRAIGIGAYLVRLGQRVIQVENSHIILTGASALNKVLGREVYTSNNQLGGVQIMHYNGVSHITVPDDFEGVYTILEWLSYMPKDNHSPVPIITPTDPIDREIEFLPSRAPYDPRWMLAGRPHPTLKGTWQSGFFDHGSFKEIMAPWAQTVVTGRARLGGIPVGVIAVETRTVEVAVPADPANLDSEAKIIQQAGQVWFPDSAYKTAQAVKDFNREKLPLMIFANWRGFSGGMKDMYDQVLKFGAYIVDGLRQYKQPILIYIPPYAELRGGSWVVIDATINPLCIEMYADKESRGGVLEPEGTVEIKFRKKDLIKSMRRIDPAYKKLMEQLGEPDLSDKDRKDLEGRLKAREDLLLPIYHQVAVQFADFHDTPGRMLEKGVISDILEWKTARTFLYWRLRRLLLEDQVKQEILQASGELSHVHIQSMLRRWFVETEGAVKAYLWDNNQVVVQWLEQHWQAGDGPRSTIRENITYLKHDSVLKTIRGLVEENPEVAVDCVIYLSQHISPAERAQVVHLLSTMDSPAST
Protocol: The detailed procedure is as follows. […] 10 μL ADP glo reagent was added. […] 20 μL kinase detection reagent was added.

[2] = system: Collectotrichum graminicola (Cg); experiment: Growth inhibition assay of fungal pathogens, Cg; assay type: cell-based; details: 48 h
How it was run: as §1

Septoria tritici (St) = experiment: Growth inhibition assay of fungal pathogens, St; assay type: cell-based; details: Zymoseptoria tritici, 48 h
How it was run: as §1

[3] = system: Fusarium virguliforme (Fv); experiment: Growth inhibition assay of fungal pathogens, Fv; assay type: cell-based; details: 48 h
How it was run: as §1

C. krusei = experiment: Antifungal Activity Assay (broth microtiter MIC), C. krusei; assay type: cell-based, Candida krusei; details: Pichia kudriavzevii, ATCC6258, 48 h
How it was run: (§2)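 Broth microdilution per CLSI M27-A3 in RPMI 1640+MOPS, inoculum 2.5×10^3 CFU/mL final from overnight Sabouraud dextrose agar cultures at 35° C. Compounds diluted from DMSO stock to 128 μg/mL in water. MIC read visually versus growth control at 48 h.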

C. parapsilosis = experiment: Antifungal Activity Assay (broth microtiter MIC), C. parapsilosis; assay type: cell-based, Candida parapsilosis; details: Lodderomyces parapsilosis, ATCC22019, 48 h
How it was run: as §2

[4] = system: Fusarium moniliforme (Fm); experiment: Growth inhibition assay of fungal pathogens, Fm; assay type: cell-based; details: for IC90: Fusarium verticillioides, 48 h, read-out: Concentration at 90% Inhibition Fm
How it was run: as §1

C. albicans = experiment: Antifungal Activity Assay (broth microtiter MIC), C. albicans; assay type: cell-based, Candida albicans; details: Candida albicans, ATCC90028, 48 h
How it was run: as §2

[5] = Fusarium moniliforme, growth inhibition at 48 hours vs 2% DMSO control

Compound: COc1ccc(F)cc1[C@H](Cn1c(=O)n([C@H](C)C(=O)N(C)C(C)C)c(=O)c2c(C)c(-n3nccn3)sc21)OCCO [Compound I-85, (R)-2-(1-((R)-2-(5-fluoro-2-methoxyphenyl)-2-(2-hydroxy-ethoxy)ethyl)-5-methyl-2,4-dioxo-6-(2H-1,2,3-triazol-2-yl)-1,4-dihydro-thieno[2,3-d]pyrimidin-3(2H)-yl)-N-isopropyl-N-methylpropanamide]
- IC90 ([1]; growth inhibition at 48 hours vs 2% DMSO control, read-out: Concentration at 90% Inhibition Pc): 2 µg/mL (≈ 3.4 µM)
- IC90 ([1]; growth inhibition vs 2% DMSO control at 48 hours, read-out: Concentration at 90% Inhibition Pc): 2 µg/mL (≈ 3.4 µM)
- IC90 (Diplodia maydis (Dm); Diplodia maydis, growth inhibition at 48 hours vs 2% DMSO control, read-out: Concentration at 90% Inhibition Dm): 0.08 µg/mL (≈ 0.136 µM)
- IC90 (Diplodia maydis (Dm); Diplodia maydis, growth inhibition vs 2% DMSO control at 48 hours, read-out: Concentration at 90% Inhibition Dm): 0.08 µg/mL (≈ 0.136 µM)
- IC90 (Rhizoctonia solani (Rs); mycelial plugs, growth inhibition at 48 hours vs 2% DMSO control, read-out: Concentration at 90% Inhibition Rs): 0.08 µg/mL (≈ 0.136 µM)
- IC90 (Rhizoctonia solani (Rs); mycelial plugs, growth inhibition vs 2% DMSO control at 48 hours, read-out: Concentration at 90% Inhibition Rs): 0.08 µg/mL (≈ 0.136 µM)
- IC50 (human (hACC2); Table 2a): 10 to 40 nM
- IC50 (human (hACC2); Table 2b, additional results): 10 to 40 nM
- IC90 ([2]; Collectotrichum graminicola, growth inhibition at 48 hours vs 2% DMSO control, read-out: Concentration at 90% Inhibition Cg): 0.08 µg/mL (≈ 0.136 µM)
- IC90 ([2]; Collectotrichum graminicola, growth inhibition vs 2% DMSO control at 48 hours, read-out: Concentration at 90% Inhibition Cg): 0.08 µg/mL (≈ 0.136 µM)
- IC90 (Septoria tritici (St); Septoria tritici, growth inhibition at 48 hours vs 2% DMSO control, read-out: Concentration at 90% Inhibition St): 2 µg/mL (≈ 3.4 µM)
- IC90 (Septoria tritici (St); Septoria tritici, growth inhibition vs 2% DMSO control at 48 hours, read-out: Concentration at 90% Inhibition St): 10 µg/mL (≈ 17 µM)
- IC90 ([3]; growth inhibition at 48 hours vs 2% DMSO control, read-out: Concentration at 90% Inhibition Fv): 0.4 µg/mL (≈ 0.68 µM)
- IC90 ([3]; growth inhibition vs 2% DMSO control at 48 hours, read-out: Concentration at 90% Inhibition Fv): 0.4 µg/mL (≈ 0.68 µM)
- MIC (C. krusei; Table 3a, ATCC 6258, 3 replicates, MIC recorded at 48 h, read-out: MIC, C. krusei ATCC 6258): 0.25 to 1 µg/mL (≈ 0.425 to 1.7 µM)
- MIC (C. krusei; Table 3b (additional results), ATCC 6258, 3 replicates, MIC recorded at 48 h, read-out: MIC, C. krusei ATCC 6258): 1.01 to 2 µg/mL (≈ 1.72 to 3.4 µM)
- MIC (C. parapsilosis; Table 3a, ATCC 22019, 3 replicates, MIC recorded at 48 h, read-out: MIC, C. parapsilosis ATCC 22019): 0.25 to 1 µg/mL (≈ 0.425 to 1.7 µM)
- MIC (C. parapsilosis; Table 3b (additional results), ATCC 22019, 3 replicates, MIC recorded at 48 h, read-out: MIC, C. parapsilosis ATCC 22019): 2.01 to 4 µg/mL (≈ 3.41 to 6.8 µM)
- IC90 [4, 5]: 0.08 µg/mL (≈ 0.136 µM)
- IC90 ([4]; Fusarium moniliforme, growth inhibition vs 2% DMSO control at 48 hours): 0.08 µg/mL (≈ 0.136 µM)
- MIC (C. albicans; Table 3a, ATCC 90028, 3 replicates, MIC recorded at 48 h, read-out: MIC, C. albicans ATCC 90028): 0.25 to 1 µg/mL (≈ 0.425 to 1.7 µM)
- MIC (C. albicans; Table 3b (additional results), ATCC 90028, 3 replicates, MIC recorded at 48 h, read-out: MIC, C. albicans ATCC 90028): 1.01 to 2 µg/mL (≈ 1.72 to 3.4 µM)

Compound: COCCCO[C@@H](Cn1c(=O)n([C@@H](C)C(=O)NC(C)C)c(=O)c2c(C)c(-n3nccn3)sc21)c1cc(F)ccc1OC [Compound I-86, (S)-2-(1-((R)-2-(5-fluoro-2-methoxyphenyl)-2-(3-methoxy-propoxy)ethyl)-5-methyl-2,4-dioxo-6-(2H-1,2,3-triazol-2-yl)-1,4-dihydrothieno[2,3-d]pyrimidin-3(2H)-yl)-N-isopropylpropanamide]
- IC90 ([1]; read-out: Concentration at 90% Inhibition Pc, Phytophthora capsici, growth inhibition at 48 hours vs 2% DMSO control): > 50 µg/mL
- IC90 ([1]; read-out: Concentration at 90% Inhibition Pc, Phytophthora capsici, growth inhibition vs 2% DMSO control at 48 hours): > 50 µg/mL
- IC90 (Diplodia maydis (Dm); read-out: Concentration at 90% Inhibition Dm, Diplodia maydis, growth inhibition at 48 hours vs 2% DMSO control): 2 µg/mL (≈ 3.32 µM)
- IC90 (Diplodia maydis (Dm); read-out: Concentration at 90% Inhibition Dm, Diplodia maydis, growth inhibition vs 2% DMSO control at 48 hours): 2 µg/mL (≈ 3.32 µM)
- IC90 (Rhizoctonia solani (Rs); read-out: Concentration at 90% Inhibition Rs, Rhizoctonia solani, mycelial plugs, growth inhibition at 48 hours vs 2% DMSO control): 2 µg/mL (≈ 3.32 µM)
- IC90 (Rhizoctonia solani (Rs); read-out: Concentration at 90% Inhibition Rs, Rhizoctonia solani, mycelial plugs, growth inhibition vs 2% DMSO control at 48 hours): 2 µg/mL (≈ 3.32 µM)
- IC50 (human (hACC2); Table 2a): 10 to 40 nM
- IC50 (human (hACC2); Table 2b, additional results): 10 to 40 nM
- IC90 ([2]; read-out: Concentration at 90% Inhibition Cg, Collectotrichum graminicola, growth inhibition at 48 hours vs 2% DMSO control): 10 µg/mL (≈ 16.6 µM)
- IC90 ([2]; read-out: Concentration at 90% Inhibition Cg, Collectotrichum graminicola, growth inhibition vs 2% DMSO control at 48 hours): > 50 µg/mL
- IC90 (Septoria tritici (St); read-out: Concentration at 90% Inhibition St, Septoria tritici, growth inhibition at 48 hours vs 2% DMSO control): > 50 µg/mL
- IC90 (Septoria tritici (St); read-out: Concentration at 90% Inhibition St, Septoria tritici, growth inhibition vs 2% DMSO control at 48 hours): > 50 µg/mL
- IC90 ([3]; read-out: Concentration at 90% Inhibition Fv, Fusarium virguliforme, growth inhibition at 48 hours vs 2% DMSO control): 10 µg/mL (≈ 16.6 µM)
- IC90 ([3]; read-out: Concentration at 90% Inhibition Fv, Fusarium virguliforme, growth inhibition vs 2% DMSO control at 48 hours): > 50 µg/mL
- MIC (C. krusei; read-out: MIC, C. krusei ATCC 6258, Table 3a, 3 replicates, MIC recorded at 48 h): 2.1 to 4 µg/mL (≈ 3.48 to 6.64 µM)
- MIC (C. krusei; read-out: MIC, C. krusei ATCC 6258, Table 3b (additional results), 3 replicates, MIC recorded at 48 h): 1.01 to 2 µg/mL (≈ 1.68 to 3.32 µM)
- MIC (C. parapsilosis; read-out: MIC, C. parapsilosis ATCC 22019, Table 3a, 3 replicates, MIC recorded at 48 h): 2.1 to 4 µg/mL (≈ 3.48 to 6.64 µM)
- MIC (C. parapsilosis; read-out: MIC, C. parapsilosis ATCC 22019, Table 3b (additional results), 3 replicates, MIC recorded at 48 h): 1.01 to 2 µg/mL (≈ 1.68 to 3.32 µM)
- Concentration at 90% Inhibition Fm [4, 5]: AA (compound concentration of 0.08 ppm at 90% inhibition of fungal pathogens)
- IC90 [4]: 0.08 µg/mL (≈ 0.133 µM)
- MIC (C. albicans; read-out: MIC, C. albicans ATCC 90028, Table 3a, 3 replicates, MIC recorded at 48 h): 2.1 to 4 µg/mL (≈ 3.48 to 6.64 µM)
- MIC (C. albicans; read-out: MIC, C. albicans ATCC 90028, Table 3b (additional results), 3 replicates, MIC recorded at 48 h): 2.01 to 4 µg/mL (≈ 3.34 to 6.64 µM)
